According to patent publication US5985824A, “Methods and compositions for treating cystic fibrosis” (priority 1997, dated 1999):
“Also recorded” adds a separate entry of the source.

Tests used:
ΔF508-CFTR (IBE-1 cells) [1] = assay: SPQ halide efflux assay, cAMP-stimulated Cl- channel activity, IBE-1 cells; assay type: cell-based, human; conditions: DSG 5 to 50 μg/ml, 72 h
Protocol: The cAMP-dependent CFTR Cl^- channel activity was assessed using the halide-sensitive fluorophore 6-methoxy-N-(3-sulfopropyl)-quinolinium (SPQ) essentially as described previously (Cheng et al., (1995), supra.; Marshall et al., supra.). Briefly, the cells were treated with different amounts of DSG for the times specified. At the end of the treatment period, the cells were loaded with SPQ by hypotonic shock for 4 min at room temperature. SPQ fluorescence initially was quenched by incubating the cells for up to 30 min in a NaI buffer (135 mM NaI, 2.4 mM K2 HPO4, 0.6 mM KH2 PO4, 1 mM MgSO4, 1 mM CaSO4, 10 mM dextrose, and 10 mM N-2 hydroxyethylpiperazine-N'2-ethanesulfonic acid, pH 7.4). After measuring the baseline fluorescence (Fo) for 2 min., the NaI solution was replaced with one containing 135 mM NaNO3, and fluorescence was measured for another 16 min. […]
An increase in halide permeability is reflected by a more rapid increase in SPQ fluorescence. […] Differences in absolute levels reflect quantitative differences between groups in SPQ loading, size of cells, or number of cells studied. The data are presented as means± SE of fluorescence at time t (Ft) minus the baseline fluorescence (Fo, the average fluorescence measured in the presence of I^- for 2 min. before ion substitution) and are representative of results obtained under each condition. […]

ΔF508-CFTR (IBE-1 cells) [2] = assay: whole cell patch-clamp analysis of IBE-1 cells; assay type: cell-based, human; conditions: for reversal potential: DSG-treated cells
Protocol: The bath (extracellular) solution contained: 140 mM N-methyl-Dglucamine (NMDG), 2 mM CaCl2, 1 mM MgCl2, 0.1 mM CdCl2, 10 mM HEPES, 4 mM CsCl, and 10 mM glucose, pH 7.4. These solutions were designed so as to study only currents flowing through Cl^- channels, since Cl^- was the only significant permeant ion in the solutions. Furthermore, Ca^2+ -activated Cl^- currents were minimized by inclusion of 10 mM EGTA in the intracellular solution and 100 μM of Cd^2+ in the extracellular bath. K^+ currents were minimized by including 20 mM TEA in the intracellular solution. Aspartate was used as the replacement anion in experiments in which extracellular Cl^- concentration was changed. Forskolin (10 μM), IBMX (100 μM), 8-(4-chlorophenylthio)-cAMP (cpt-cAMP, 200 μM), diphenylamine carboxylic acid (DPC, 200 μM), UTP (100 μM), and ionomycin (1 μM) were added to the bath solutions as indicated. Current recordings were made from the same cells before, during, and after exposure to the solutions containing the different agonists or inhibitors. All experiments were performed at room temperature (22° C.). Currents were filtered at 2 kHz. Data acquisition and analysis were performed using the PCLAMP 5.5.1 software (Axon Instruments, Foster City, Calif.).
In all of the successfully patched CF IBE-1 cells from 6 separate coverslips no activation of whole cell currents in response to forskolin (10 μM) plus IBMX (100 μM) or cpt-cAMP (200 μM) was detected (FIG. 10A and 10B), indicating no endogenous CFTR channel activity in these cells. In contrast, in 7 out of 19 successful patched cells from 19 separate coverslips treated with DSG (10 μM) for 48 to 72 hrs. a significant activation of whole cell currents was observed. As all the other cells, the holding potential was 0 m, which inactivated the voltage-gated Na^+ and Ca^++ channels. After addition of 200 μM cpt-cAMP to the bath solution, voltage steps from the holding potential to between -100 mV and 80 mV in 20 mV increments activated whole cell currents. In these experiments, the intracellular and extracellular solutions were designed to study only current flowing through Cl^- channels, since Cl^- is the only significant permeant ion in solution. Ca^++ and K^+ currents were minimized by 100 μM of extracellular Cd^++ and 20 mM of intracellular TEA respectively. Furthermore, the currents were ascertained to be Cl^- currents from change in the reversal potential which was shifted from 1.1±1.5 to 47.3±6.1 mV by reducing extracellular Cl^- from 150 mM to 20 mM.
It is highly unlikely that Ca^++ -activated Cl^- was recorded in these experiments because of the presence of 10 mM intracellular EGTA and 100 µM extracellular Cd^++. […] Special attention was paid to detect possible contribution of the outwardly rectifying Cl^- channel (ORCC) to the whole cell currents. Because of a possible upregulatory role of CFTR, ORCC can be activated in normal but not in CF airway epithelial cells (Hwang et al. (1989), supra.; Li et al. (1988), Nature 331: 358-360; Morris and Frizzel (1993); Am. J. Physiol.; Schwiebert et al. (1994), Am. J. Physiol.).

[3] = tested on: ΔF508-CFTR (C127-ΔF508-low cells); assay: SPQ halide efflux assay, cAMP-stimulated Cl- channel activity, C127-ΔF508-low cells; assay type: cell-based; conditions: FIG. 1E

## N=C(N)NCCCCCCC(=O)NC(O)C(=O)NCCCCNCCCN (stereo not shown) [DSG, deoxyspergualin]
ΔF508-CFTR (IBE-1 cells) [1]
  cAMP-stimulated Cl- channel activity, in words: concentration-dependent, with higher concentrations of DSG giving rise to greater transport rates and higher numbers of positively-responding cells; also recorded: comparable to that observed when these cells were cultured at a reduced temperature
ΔF508-CFTR (IBE-1 cells) [1]; FIG. 9B
  cells exhibiting measurable cAMP-stimulated Cl- channel activity: up to 20%
ΔF508-CFTR (IBE-1 cells) [2]; DSG (10 μM) 48 to 72 hrs, cAMP stimulation
  successfully patched cells with significant activation of whole cell currents: 7 out of 19
ΔF508-CFTR (IBE-1 cells) [2]; extracellular Cl- 150 mM
  reversal potential: 1.1±1.5 mV
ΔF508-CFTR (IBE-1 cells) [2]; extracellular Cl- reduced to 20 mM
  reversal potential: 47.3±6.1 mV
ΔF508-CFTR (IBE-1 cells) [2]; IBE-1 cells
  whole cell currents, in words: resembled those of wild-type CFTR in epithelial cells; also recorded: almost identical to that recorded in transduced CF IBE-1 cells
[3]
  percentage of mature CFTR produced from CFTR-ΔF508 upon exposure to reduced temperatures: increases upon exposure to reduced temperatures
